The values that follow come from patent US11136409B2, “Compositions and methods for identification, assessment, prevention, and treatment of AML using USP10 biomarkers and modulators” (Dana-Farber Cancer Institute, Inc., priority 2016, dated 2021).

SMILES strings stand for the structures. Where two headings read alike, the source gives them in different places.

For assay [1], the target named is T1, human USP10 (residues 376-798) (Homo sapiens, UniProt Q14694).
T1 construct: A construct of human USP10 covering residues 376-798 in the pET28a vector; His-tag (cleaved yes); made in house; host or cells: E. coli BL21 (DE3)
The assay is described as follows: In vitro USP10 activity assay (Ubiquitin-AMC). In kind it is biochemical. Particulars: ubiquitin-AMC as substrate; purified enzyme; read-out: USP10 biochemical IC50. Here is the method:
Protein expression and purification. A construct of human USP10 covering residues 376-798 in the pET28a vector was over-expressed in E. coli BL21 (DE3) in TB medium in the presence of […] of kanamycin. Cells were grown at 37° C. to an OD of 0.8, cooled to 17° C., induced with 500 μM isopropyl-1-thio-D-galactopyranoside, incubated overnight at 17° C., collected by centrifugation, and stored at −80° C. Cell pellets were sonicated in buffer A (50 mM HEPES (pH 7.5), 300 mM NaCl, 10% glycerol, 10 mM Imidazole, and 3 mM BME) and the resulting lysate was centrifuged at 30,000×g for 30 min. Ni-NTA beads (Qiagen) were mixed with lysate supernatant for 30 min and washed with buffer A. Beads were transferred to an FPLC-compatible column and the bound protein was washed with 15% buffer B (50 mM HEPES (pH 7.5), 300 mM NaCl, 10% glycerol, 300 mM Imidazole, and 3 mM BME) and eluted with 100% buffer B. Thrombin was added to the eluted protein and incubated at 4° C. overnight. The sample was then passed through a HiPrep 26/10 desalting column (GE Healthcare) pre-equilibrated with buffer A without imidazole, and the eluted protein was subjected to a second Ni-NTA step to remove His-tag and Thrombin. The eluent was concentrated and passed through a Superdex® 200 10/300GL column (GE Healthcare) in a buffer containing 20 mM HEPES (pH 7.5), 150 mM NaCl, and 1 mM DTT. Fractions were pooled, concentrated to 20 mg/ml, and frozen at −80° C.
In vitro USP10 activity assay. Recombinant USP10, residues 376-798, was tested for its activity in a Ubiquitin-AMC assay in presence or absence of inhibitors. For this assay, 10 nM USP10 were pre-incubated with different concentrations of inhibitors or DMSO as a control in 50 mM HEPES pH7.6, 0.5 mM EDTA, 11 uM ovalbumin, and 5 mM DTT. The reaction was incubated for 6 hours at room temperature prior to the addition of 2 uM Ubiquitin-AMC (Boston Biochem) substrate. The initial rate of the reaction was measured by collecting fluorescence data at one minute intervals over 30-minute period using a CLARIOstar® fluorescence plate reader at excitation and emission wavelength of 345 and 445 nm, respectively. The calculated initial rate values were plotted against inhibitor concentrations to determine IC50 values.

For the next assay, the system named is Ba/F3-FLT3-ITD cells. The assay is described as follows: Immunoblot of FLT3 / Beclin-1 in Ba/F3-FLT3-ITD cells. In kind it is cell-based, murine. Particulars: immunoblot; Ba/F3-FLT3-ITD cells. The text has this: The following antibodies were purchased from Cell Signaling Technology (Danvers, Mass.): total AKT (rabbit, #9272) and total p44/42 MAPK (Erk1/2) (3A7) (mouse, #9107) were used at 1:1000 dilution. Anti-GAPDH (D16H-11) XP (R) (rabbit mAb, #5174) was used at 1:1000 dilution. Beclin-1 (rabbit, #3738) was used at 1:1000. USP10 (D7A5) (rabbit, #8501) was used at 1:1000 dilution. P53 (rabbit, #9282) was used at 1:1000 dilution. β-tubulin (rabbit, #2146s) was used 1:1000.
FLT3/Flk-2 (C-20) (sc-479) and Ub (P4D1) (mouse, sc-8017) were purchased from Santa Cruz Biotechnology, Inc. (Dallas, Tex.) and used at 1:1000 dilution for immunoblotting. Anti-pTyr (mouse, clone 4G10) was purchased from Upstate Biotechnology (Lake Placid, N.Y.) and was used at 1:1000 dilution. Anti-HAUSP/USP7 antibody (rabbit, ab4080) and anti-ubiquitin antibody (rabbit, ab7780) were purchased from Abcam (Cambridge, Mass.) and used at 1:1000 dilution.
Protein lysate preparation, immunoblotting, and immunoprecipitation were carried out as previously described in Weisberg et al. (2002) Cancer Cell 1:433-443.
In general terms: In western blotting, separated proteins are transferred to a membrane and probed.

A further assay addresses USP7 (Homo sapiens, UniProt Q93009). The assay is described as follows: USP7 IC50 of HBX19818 analogs (Table 9). In kind it is biochemical. Particulars: read-out: USP7 IC50 +/− SEM.
For assay [2], the system named is mutant FLT3-expressing cells. The assay can be described thus: Dynamic BH3 profiling (mitochondrial priming). In kind it is cell-based, human. Particulars: cytochrome c release in response to Bim peptide, 14 h; compared to wt or null FLT3-expressing cells. The method, then: To determine drug-induced changes in mitochondrial priming, dynamic BH3 profiling was performed as previously described in Montero et al. (2015) Cell 160:977-989 and Pan et al. (2014) Cancer Discov. 4:362-375. Briefly, 0.4×10^6 cells/well were exposed to drug treatment for 14 hours. At the end of incubation time, cells were washed in PBS, pelleted at 500×g for 5 min, and resuspended in MEB buffer. Fifteen μl of cell suspension was added to each well of 384 well plate containing 15 μl of MEB buffer containing 20 μg/mL digitonin and BH3 peptides at twice their final concentration, and the mixture was incubated for 60 min at 26° C. to allow mitochondrial depolarization. Peptide exposure was then terminated by adding 10 μl 4% formaldehyde in PBS for 15 min, followed by neutralization with N2 buffer (1.7M Tris, 1.25M glycine, pH 9.1) for 10 min. In order to determine cytochrome C levels, anti-cytochrome C clone 6H2.B4 conjugated to Alexa Fluor® 647 (BD Bioscience) was diluted 1:50 in 10× staining buffer (10% BSA, 2% Tween-20 and 0.02% sodium azide in PBS) and 10 μl of this antibody-containing buffer was added to each well for a final dilution of 1:400. Cells were stained overnight at 4° C. in dark and data were acquired on a BD LSRFortessa™ analyzer (BD Biosciences). Priming change (Δ) was calculated by comparing cytochrome C abundance in treated cells to that of DMSO-treated control cells.

A further assay concerns MV4,11. The assay can be described thus: Anti-proliferation, 24 hr treatment (CellTiter-Glo). In kind it is cell-based, human. The note with it: 24 hr treatment; MV4,11 (FLT3-ITD); read-out: Anti-proliferation IC50. An excerpt:
(§1) Nomo-1, P31-FUJ, and NB4 were obtained from Dr. Gary Gilliland. MV4, 11 cells were obtained from Dr. Anthony Letai. Hel, K562, THP, U937, TF-1 and K052 cells were purchased from the American Type Culture Collection (ATCC) (Manassas, Va., USA). […] Cell lines were submitted for cell line authentication and were authenticated within 6 months of manuscript preparation through cell line short tandem repeat (STR) profiling (DDC Medical, Fairfield, Ohio and Molecular Diagnostics Laboratory, Dana Farber Cancer Institute). […] PBMCs were generously provided by Dr. Steven Treon and Dr. Guang Yang.
(§2) The CellTiter-Glo® assay (Promega, Madison, Wis.) was used for proliferation studies and carried out according to manufacturer instructions. Cell viability is reported as percentage of control (untreated) cells, and error bars represent the standard error of the mean for each data point.
For orientation: In ATP-based viability assays light output follows the ATP content of the culture.

A further assay has as its system NB4-luc+. The assay is described as above. In kind it is cell-based, human. Particulars: 24 hr treatment; NB4-luc+ (FLT3 wt or null); read-out: Anti-proliferation IC50.
Excerpt: as §1, §2

The test system of the next assay is OCI-AML5. Described as above. In kind it is cell-based, human. Particulars: 24 hr treatment; OCI-AML5 (FLT3 wt or null); read-out: Anti-proliferation IC50.
Excerpt: as §1, §2

The subject of another assay is MOLM13-luc+. The description is as above. In kind it is cell-based, human. Particulars: 24 hr treatment; MOLM13-luc+ (FLT3-ITD); read-out: Anti-proliferation IC50.
Excerpt: as §1, §2

In a further assay the test system is HEL. The assay is described as above. In kind it is cell-based, human. The note with it: 24 hr treatment; HEL (FLT3 wt or null); read-out: Anti-proliferation IC50.
Excerpt: as §1, §2

In another assay the test system is P31. The description is as above. Particulars: 24 hr treatment; P31 (FLT3 wt or null); read-out: Anti-proliferation IC50. In kind it is cell-based, human.
Excerpt: as §1, §2

A further assay has as its system NOMO-1. Described as above. Particulars: 24 hr treatment; NOMO-1 (FLT3 wt or null); read-out: Anti-proliferation IC50. In kind it is cell-based, human.
Excerpt: as §1, §2

A further assay deals with K052. The assay is described as above. In kind it is cell-based, human. The note with it: 24 hr treatment; K052 (FLT3 wt or null); read-out: Anti-proliferation IC50.
Excerpt: as §1, §2

A further assay has as its system U937. The description is as above. In kind it is cell-based, human. Particulars: 24 hr treatment; U937 (FLT3 wt or null); read-out: Anti-proliferation IC50.
Excerpt: as §1, §2

The test system of a further assay is TF-1. Described as above. Particulars: 24 hr treatment; TF-1 (FLT3 null); read-out: Anti-proliferation IC50. In kind it is cell-based, human.
Excerpt: as §1, §2

In the next assay the test system is MOLM14. The description is as above. In kind it is cell-based, human. Particulars: 24 hr treatment; MOLM14 (FLT3-ITD); read-out: Anti-proliferation IC50.
Excerpt: as §1, §2

Another assay relates to K562. The description is as above. In kind it is cell-based, human. Particulars: 24 hr treatment; K562 (FLT3 wt or null); read-out: Anti-proliferation IC50.
Excerpt: as §1, §2

In a further assay the test system is PBMCs. The assay is described as follows: Treatment of PBMCs from healthy donors with USP10-targeting inhibitors. In kind it is cell-based, human.
Excerpt: as §1, §2

Assay [3] has as its system AML primagraft (D835Y+, FLT3-ITD+) cells. The assay can be described thus: Treatment of mutant FLT3-expressing AML primagraft cells ex vivo. Particulars: read-out: IC50 (+/−S.D.) AML primagraft (D835Y+, FLT3-ITD+). In kind it is cell-based, human. The method, then:
All animal studies were performed according to protocols approved by the Dana-Farber Cancer Institute's Institutional Animal Care and Use Committee. […] Mice were sacrificed on day 21 of treatment. Bone marrow was flushed from mouse femurs, and spleens and livers were dissected and preserved first in formalin, followed 24 hours later by preservation in 70% ethanol. […] All AML primagraft samples used in the studies described herein were obtained through the Public Repository of Xenografts (proxe.org).
as §2

Sequence of USP7 (Q93009 whole entry): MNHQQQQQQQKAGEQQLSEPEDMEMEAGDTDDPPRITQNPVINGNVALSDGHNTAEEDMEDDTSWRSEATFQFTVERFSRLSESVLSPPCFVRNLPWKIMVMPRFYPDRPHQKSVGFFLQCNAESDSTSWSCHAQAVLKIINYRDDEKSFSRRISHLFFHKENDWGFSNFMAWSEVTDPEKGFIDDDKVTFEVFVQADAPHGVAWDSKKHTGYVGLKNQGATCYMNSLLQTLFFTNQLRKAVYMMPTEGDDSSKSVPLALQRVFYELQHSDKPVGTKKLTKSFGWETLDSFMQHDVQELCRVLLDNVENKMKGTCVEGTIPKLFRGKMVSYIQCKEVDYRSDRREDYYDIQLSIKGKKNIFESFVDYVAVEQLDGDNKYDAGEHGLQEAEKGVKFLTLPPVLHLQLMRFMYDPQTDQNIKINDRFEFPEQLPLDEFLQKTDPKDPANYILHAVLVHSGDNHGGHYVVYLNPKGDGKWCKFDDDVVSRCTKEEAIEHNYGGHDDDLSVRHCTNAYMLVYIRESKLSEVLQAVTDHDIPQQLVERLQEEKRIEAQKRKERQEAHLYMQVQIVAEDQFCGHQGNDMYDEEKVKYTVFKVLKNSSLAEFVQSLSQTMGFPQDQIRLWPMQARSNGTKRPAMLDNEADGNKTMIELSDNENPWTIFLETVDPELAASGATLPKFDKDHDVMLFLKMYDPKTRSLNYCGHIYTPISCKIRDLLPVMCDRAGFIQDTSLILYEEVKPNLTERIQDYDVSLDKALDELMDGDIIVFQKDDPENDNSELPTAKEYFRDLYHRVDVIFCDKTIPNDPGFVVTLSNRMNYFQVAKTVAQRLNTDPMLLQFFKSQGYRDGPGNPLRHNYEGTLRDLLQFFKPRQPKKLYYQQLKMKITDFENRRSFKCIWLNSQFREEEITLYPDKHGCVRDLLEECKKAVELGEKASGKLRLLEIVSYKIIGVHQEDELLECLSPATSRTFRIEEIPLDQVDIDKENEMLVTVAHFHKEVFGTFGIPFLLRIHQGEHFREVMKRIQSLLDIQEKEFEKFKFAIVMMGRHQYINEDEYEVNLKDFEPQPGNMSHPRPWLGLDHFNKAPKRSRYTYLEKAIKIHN
T1 sequence (Q14694 376-798): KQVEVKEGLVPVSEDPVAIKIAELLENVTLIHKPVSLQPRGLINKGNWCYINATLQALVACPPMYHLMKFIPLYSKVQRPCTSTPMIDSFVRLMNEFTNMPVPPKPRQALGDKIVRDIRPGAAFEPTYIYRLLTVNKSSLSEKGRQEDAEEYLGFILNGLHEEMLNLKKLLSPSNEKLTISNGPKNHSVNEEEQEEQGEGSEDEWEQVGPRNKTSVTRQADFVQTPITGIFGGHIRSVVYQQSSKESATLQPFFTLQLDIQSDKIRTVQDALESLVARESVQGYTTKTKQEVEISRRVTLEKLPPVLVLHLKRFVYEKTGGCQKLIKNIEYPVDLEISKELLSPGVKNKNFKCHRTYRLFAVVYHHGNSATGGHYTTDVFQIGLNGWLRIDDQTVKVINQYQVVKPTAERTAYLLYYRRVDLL

With `CCN(CCCNC(=O)c1ccc2nc3c(c(Cl)c2c1)CCCC3)c1ccccc1` [C598-0468], the IC50 (in assay [1]; on USP7) was greater than 100 µM each time. The FLT3 protein levels entry in the assay with Ba/F3-FLT3-ITD cells is “no effect on FLT3 levels”.
`O=C(NCCc1ccc(Cl)cc1)c1ccc2nc3c(c(Cl)c2c1)CCCC3` [C598-0515]: the IC50 at USP7 is greater than 100 µM.
Regarding `O=C(NCCN1CCN(Cc2ccccc2)CC1)c1ccc2nc3c(c(Cl)c2c1)CCCC3` [C598-0571], in [2], the “Mitochondrial priming for apoptosis” value is given as “more strongly”. Further, the IC50 is 9.2 µM in the assay with MV4,11; 29 µM with NB4-luc+; 37.7 µM with OCI-AML5; 12.6 µM in the assay with MOLM13-luc+; 40.7 µM with HEL; 30 µM in the assay with P31. Besides, the IC50 turned out to be 20.9 µM with NOMO-1; 35.1 µM in the assay on K052; 21.9 µM in the assay on U937; 18.4 µM in the assay with TF-1; 18.6 µM with MOLM14; 35.9 µM with K562. Further, the IC50 in the assay on PBMCs (24 hr assay, PBMC#1, read-out: IC50 (+/−S.D.) PBMC#1) was 32.3 µM; in the assay on PBMCs (24 hr assay, PBMC#2, read-out: IC50 (+/−S.D.) PBMC#2) it was 31.3 µM; with PBMCs (72 hr assay, PBMC#1, read-out: IC50 (+/−S.D.) PBMC#1) it was 16.6 µM; in the assay on PBMCs (72 hr assay, PBMC#2, read-out: IC50 (+/−S.D.) PBMC#2), 14.8 µM; in assay [3] (24 hr assay), 10.3 µM; in [3] (72 hr assay), 1.4 µM. Besides, the IC50 at USP7 worked out at 22 µM.
Turning to `CCN(CC)S(=O)(=O)c1ccc(NC(=O)c2ccc3nc4c(c(Cl)c3c2)CCCC4)cc1` [C598-0646], the IC50 at USP7 is greater than 100 µM.
